The test system of one data set is depression. Kind of data set: clinical case study, concurrent depression (Example 1). Format: in vivo, human. The note with it: Example 1, patient; sertraline HCl 100 mg/day added to topiramate 75 mg/day. The protocol:
(§1) Prior to treatment, within 15 minutes of falling asleep, the patient was awakened by uncontrollable jerking of their legs. […] The patient had also used lorazepam and alprazolam to treat the RLS, with some benefit.
(§2) The patient was switched to topiramate, initially at 25 mg, with a gradual increase in dosage to 75 mg/day for treatment of the RLS. Sertraline HCl at 100 mg/day was added for the treatment of their concurrent depression. Lorazepam and alprazolam were discontinued. The RLS and depression symptoms were both reduced.

A further data set concerns RLS symptoms. The following applies: case study report, Hargrave and Beckley 1998; cited from earlier work.
The subject of data set [1] is restless legs syndrome (RLS). The data set is described as follows: clinical case studies of patients with restless legs syndrome. The format is in vivo, human. The note with it: for benefit of earlier treatment of the RLS: before topiramate; for benefit in controlling the RLS, earlier treatment: used in the previous 15 years. The protocol:
The ability of the compounds of formula I to treat restless legs syndrome, restless arm syndrome and associated sleep disorders is based on the results of recent clinical case studies, as described in more detail below.
as §1, §2
In the previous 15 years, the patient had also used carisoprodol, chlordiazepoxide HCl, clorazepate dipotassium, meprobamate, phenobarbital, flurazepam HCl, promethazine, levodopa and carbidopa, with some benefit in controlling the RLS.
Topiramate was started at 25 mg/day and increased gradually to 300 mg/day during a six month period.
The patient was a person, with diagnosed recurrent unipolar depression, post traumatic stress disorder, panic disorder, nicotine, alcohol and cannabis dependency. The patient also complained of migraine headaches and restless leg syndrome.
The patient was started at 25 mg HS topiramate, with dosage increased to 100 mg HS and then further increased to a final dosage of 200 mg HS. Concurrent pharmacotherapy included clonazepam at 2 mg/day, desipramine HCl at 10 mg/day, clonidine at […] b.i.d., mirtazepine at 15 mg HS, triamcinolone acetonide prn, albuterol prn, potassium at […], A to Z multivitamin 1×/day and fluticasone propionate prn.

For data set [2], the system named is simple and complex partial seizures and secondarily generalized seizures. The note with it: adjunctive therapy or monotherapy; cited from earlier work.
A further data set deals with seizures. The note with it: several rodent models of epilepsy; cited from earlier work.
A further data set concerns kindled epilepsy. The note with it: animal model of kindled epilepsy; cited from earlier work.
Data set [3] is described as follows: side effects reported in the clinical case studies. Format: in vivo, human. The following applies: Example 2, person; 5 mg/day for the RLS.

Each structure is given as a SMILES string. Structures can show the parent of a compound that is named as a salt.

In the case of `CN[C@H]1CC[C@@H](c2ccc(Cl)c(Cl)c2)c2ccccc21` [Sertraline HCl], in the data set on depression, the depression symptoms result is reported as “reduced”. Further, the “change of RLS symptoms associated with the drug” value in the data set with RLS symptoms is reported as “increase in RLS symptoms”.

On to `Cc1nnc2n1-c1ccc(Cl)cc1C(c1ccccc1)=NC2` [alprazolam], for which, in data set [1] (Example 1, patient), the “benefit of earlier treatment of the RLS” value is listed as “some benefit”.

Regarding `C[C@@](Cc1ccc(O)c(O)c1)(NN)C(=O)O` [carbidopa], the “benefit in controlling the RLS, earlier treatment” value (shortened to “benefit in controlling the RLS”) in data set [1] (Example 2, person) is “some benefit”.

Take `CCCC(C)(COC(N)=O)COC(=O)NC(C)C` (stereo not shown) [carisoprodol]: the “benefit in controlling the RLS” value in data set [1] (Example 2, person) was “some benefit”.

On to `CNC1=Nc2ccc(Cl)cc2C(c2ccccc2)=[N+]([O-])C1` [chlordiazepoxide HCl], for which, in data set [1] (Example 2, person), the “benefit in controlling the RLS” value is reported as “some benefit”.

Take `O=C1CN=C(c2ccccc2Cl)c2cc([N+](=O)[O-])ccc2N1` [clonazepam]: the “effect on the RLS symptoms” value in data set [1] (Example 2, person, 2-4 mg/day) was “very little positive effect”.

For `O=C(O)C1N=C(c2ccccc2)c2cc(Cl)ccc2NC1=O` (stereo not shown) [clorazepate dipotassium], the “benefit in controlling the RLS” value in data set [1] (Example 2, person) is reported as “some benefit”.

Take `CCN(CC)CCN1C(=O)CN=C(c2ccccc2F)c2cc(Cl)ccc21` [flurazepam HCl]: the “benefit in controlling the RLS” value in data set [1] (Example 2, person) is “some benefit”.

With `N[C@@H](Cc1ccc(O)c(O)c1)C(=O)O` [levodopa], the “benefit in controlling the RLS” value in data set [1] (Example 2, person) is on record as “some benefit”.

For `O=C1Nc2ccc(Cl)cc2C(c2ccccc2Cl)=NC1O` (stereo not shown) [lorazepam], the “benefit of earlier treatment of the RLS” value in data set [1] (Example 1, patient) was “some benefit”.

Take `CCCC(C)(COC(N)=O)COC(N)=O` [meprobamate]: in data set [1] (Example 2, person), the “benefit in controlling the RLS” value is “some benefit”.

As to `CC(CN1c2ccccc2Sc2ccccc21)N(C)C` (stereo not shown) [promethazine], the “benefit in controlling the RLS” value in data set [1] (Example 2, person) is given as “some benefit”.

As to `CC1(C)O[C@@H]2[C@@H](CO[C@@]3(COS(N)(=O)=O)OC(C)(C)O[C@@H]23)O1` [topiramate, 2,3:4,5-bis-O-(1-methylethylidene)-β-D-fructopyranose sulfamate], in data set [1] (Example 1, patient, topiramate 25 mg increased to 75 mg/day, with sertraline HCl 100 mg/day, lorazepam and alprazolam discontinued), the RLS symptoms entry is on record as “reduced”. Further, the “restless legs syndrome symptoms, patient report” value in data set [1] (Example 2, person, 25 mg/day increased to 300 mg/day during six months) is given as “successfully reduced”. In data set [1] (Example 3, person), the “effectiveness for RLS compared with carisoprodol, patient report” value is reported as “more effective than carisoprodol”. The “effectiveness for RLS of topiramate and clonazepam in combination, patient report” value in data set [1] (Example 3, person, the two drugs in combination) is listed as “more effective than either drug alone”. In addition, the “effectiveness for restless leg syndrome compared with clonazepam 6 mg HS, patient report” value in data set [1] (Example 3, person, topiramate 100 mg HS) is on record as “as effective as clonazepam 6 mg HS”. In data set [2], the “efficacy in treating seizures in clinical trials” value is on record as “effective”. The block of seizures result with seizures and in the data set on kindled epilepsy was “effectively block seizures” in each case.

On to `OC(CCN1CCCCC1)(c1ccccc1)C1CCCCC1` (stereo not shown) [trixenryphenidyl], for which the side effects entry in data set [3] is “dry mouth, blurred vision and amnesia”.
